Literature values, collected in patent publication US5463127A, “Process for preparation of halohydroxypropyl-trialkylammonium halides” (The Dow Chemical Company, priority 1995, dated 1995).
Where two headings read alike, the source gives them in different places.

Settings: aqueous solution

## CN(C)C [Trimethylamine, trimethylamine]
0 °C.
  pKa of Trimethylamine: 10.355
10 °C.
  pKa of Trimethylamine: 10.128
20 °C.
  pKa of Trimethylamine: 9.907
30 °C.
  pKa of Trimethylamine: 9.692
40 °C.
  pKa of Trimethylamine: 9.477
50 °C.
  pKa of Trimethylamine: 9.270
